This test deals with Mycobacterium tuberculosis. In words: Antimycobacterial activity against Mycobacterium tuberculosis H37Rv after 6 days by luciferase reporter gene assay. The format is functional, organism-based. The settings on record: 144 h.

The structures appear in SMILES notation.

A word on the IC50: it is the point on the concentration scale where inhibition reaches its midpoint. Higher therefore signals weaker potency in that assay. A word on the IC90: it is the point of the concentration-response curve where the effect stands at 90%. The low end stands for greater potency, the high end for weaker potency. A word on the IC99: it is the concentration needed for an effect of 99%.

Regarding `Fc1ccc(C(F)(F)F)cc1/N=N/Nc1cc(C(F)(F)F)ccc1F`, the IC50 turned out to be 58.9 µM, the IC90 is greater than 100 µM and the IC99 was greater than 100 µM.
Consider `FC(F)(F)c1cc(Cl)ccc1/N=N/Nc1ccc(Cl)cc1C(F)(F)F`, for which the IC50 came out at 93 µM, the IC90 is greater than 100 µM and the IC99 is greater than 100 µM.
In turn, `Clc1ccc(/N=N/Nc2ccc(Cl)cc2Cl)c(Cl)c1` displayed an IC50 greater than 100 µM, an IC90 greater than 100 µM and an IC99 greater than 100 µM.
For the compound `COc1ccc(/C=C/C(=O)N(/N=N/c2ccc(Cl)c(C(F)(F)F)c2)c2ccc(Cl)c(C(F)(F)F)c2)c(OC)c1`, inhibition was half-maximal at 52 µM (IC50), the IC90 came to 80.8 µM and it took 84.4 µM to reach the 99% level (IC99).
Take `COc1cc(/C=C/C(=O)N(/N=N/c2ccc(Cl)c(C(F)(F)F)c2)c2ccc(Cl)c(C(F)(F)F)c2)cc(OC)c1`: the IC50 came out at 71.3 µM, the 90% effect concentration (IC90) is greater than 100 µM and the IC99 is greater than 100 µM.
As to `N#Cc1cc(/N=N/Nc2ccc(F)c(C#N)c2)ccc1F`, the IC50 was greater than 100 µM, the IC90 was greater than 100 µM and the IC99 was greater than 100 µM.
The compound `COc1ccc(/C=C/C(=O)N(/N=N/c2ccc(Cl)cc2C(F)(F)F)c2ccc(Cl)cc2C(F)(F)F)c(OC)c1` showed an IC50 of 83.1 µM, an IC90 greater than 100 µM and an IC99 greater than 100 µM.
`NNC(=O)c1ccncc1` [ISONIAZID]: the IC50 worked out at 0.04 µM, the IC90 was found to be 0.11 µM and the IC99 worked out at 0.13 µM.
On the same counts, the results for `COc1ccc(/C=C/C(=O)N(/N=N/c2cc(C(F)(F)F)ccc2Cl)c2cc(C(F)(F)F)ccc2Cl)c(OC)c1` are 72.3 µM, greater than 100 µM and greater than 100 µM.
As for `FC(F)(F)c1ccc(Cl)c(N=NNc2cc(C(F)(F)F)ccc2Cl)c1`, half-maximal inhibition (IC50) required 97.5 µM, the concentration for an effect of 90% (IC90) was greater than 100 µM and the concentration for an effect of 99% (IC99) was greater than 100 µM.
The compound `N#Cc1c(F)cccc1/N=N/Nc1cccc(F)c1C#N` had an IC50 of 62.3 µM, an IC90 greater than 100 µM and an IC99 greater than 100 µM.
In turn, `Fc1ccc(/N=N/Nc2ccc(F)cc2C(F)(F)F)c(C(F)(F)F)c1` gave an IC50 of 85.5 µM, an IC90 greater than 100 µM and an IC99 greater than 100 µM.

(Values after ChEMBL document CHEMBL3232765, “Anti-mycobacterial activity of 1,3-diaryltriazenes” (Eur J Med Chem, 2014).)
